Experimental data: patent publication EP1621631A1, “Method for the production of C6 and/or C9 aldehydes and alcohols in plants by 9/13 divinyl ether synthase” (Georg-August-Universität Göttingen, priority 2004, dated 2006)

Assays:
9/13-DES = assay: Determination of the pH optimum of 9/13-DES (endpoint determination by normal-phase and reversed-phase HPLC); format: biochemical, Knoblauch; settings: substrate of recombinant 9/13-DES; pH 5,5 bis 8,6; no pH optimum could be determined
Method: Das pH-Optimum wurde mittels einer Endpunktbestimmung mit Hilfe der Normal-Phasen-HPLC und der Umkehr-Phasen-HPLC ermittelt. Es wurden sowohl 9-HPOD als auch 13-HPOD als Substrate der DES verwendet. Für die Bestimmung des pH-Optimums wurde die Umsetzung bei pH-Werten von 4,5 bis 8,5 in Schritten von 0,5 pH-Einheiten durchgeführt. Für pH 7 wurden zweimal drei Messungen durchgeführt, da für diesen pH-Wert sowohl ein 50 mM Natrium-Phosphatpuffer als auch ein 50 mM Tris/HCl-Puffer verwendet wurde. Für die Umsetzungen wurden zwischen 25 und 80 nmol der Hydroperoxide eingesetzt. Von dem einzelnen Hydroperoxid wurde dabei immer die gleiche Menge für jede Umsetzung eingesetzt. Parallel zu den Proben für den pH-Optimumstest wurden drei Ansätze mit Zelllysat des leeren Vektors in E. coli mit 13-HPOD inkubiert. Die Leervektorkontrolle zeigte keine Divinylether-Bildung, es konnte nur das Hydroperoxid nachgewiesen werden.

[1] = system: 9/13-Divinylethersynthase aus Knoblauch; assay: Photometric determination of the substrate specificity of 9/13-DES; format: biochemical; settings: purified 9/13-DES; 100 µM hydroperoxide; room temperature; decrease of extinction at 234 or 236 nm over one minute
Method: Für die Bestimmung der Substratspezifität wurde die 9/13-Divinylethersynthase aus Knoblauch aus einer Expressionskultur aufgereinigt. Dazu wurde zunächst eine 400 ml Expressionskultur unter den schon vorher beschriebenen Bedingungen angeimpft und angezogen. Die Zellen wurden nach zweitägiger Inkubation durch 15-minütige Zentrifugation mit 4000 g bei 4°C sedimentiert. Das Sediment wurde in 20 ml 50 mM Na-Phosphat, pH 8, resuspendiert und mit Ultraschall (Sonopuls GM 70, Bandelin, Berlin) für 5-Mal eine Minute bei 50 % Leistung und 50 % Impuls aufgeschlossen. Die Zelltrümmer wurden 15 min bei 4000 x g sedimentiert und aus dem Überstand wurden durch eine weitere Zentrifugation (1 h bei 100000 x g) die Zellmembranen sedimentiert. Das Membransediment wurde für 1 h in 50 mM Na-Phosphat, pH 8, mit 1M NaCl und 0,1 % (v/v) TritonX-100 inkubiert, um die Membranproteine zu solubilisieren. Anschließend wurde erneut 1 h bei 100000 x g zentrifugiert. Der Überstand wurde mit Talon Metal Affinity Resin (Clontech, Palo Alto, USA) (200 µl Bettvolumen) über Nacht bei 4 °C geschüttelt. Danach wurde das Material auf eine Leersäule (T.J. Baker, Phillipsburg, N.J., USA) gegeben. Die Elution erfolgte mit 3 ml 50 mM Tris/HCl pH 6,3, 10 % Glycerin, 0,1 % Tween 20, 0,5 M NaCl und 0,1 M EDTA. Durch eine PD-10 Säule (Amersham pharmacia biotech, UK) wurde das Protein in 50 mM Na-Phosphat-Puffer pH 8 umgepuffert.
Das so aufgereinigte Protein wurde für die Tests im Photometer eingesetzt. Die Messungen erfolgten bei Raumtemperatur und es wurde immer bei der Wellenlänge des eingesetzten Hydroperoxids (234 bzw. 236 nm) bei einer Konzentration 100 µM für eine Minute die Abnahme der Extinktion aufgezeichnet. Die Messungen erfolgten in einer 100 µl Quarzküvette. Die Reaktion wurde durch die Zugaben von 1 µl der Proteinlösung gestartet.

Row | SMILES | Umsetzung über den pH-Bereich (9/13-DES) | Substratspezifität (Umsetzung durch 9/13-DES) [1]
1 | CCCCC/C=C\C=C\[C@H](CCCCCCCC(=O)O)OO [9-HPOD, (9S, 10E, 12Z)-9-Hydroperoxy-10,12-Octadecadiensäure] | gleich gut umgesetzt | in etwas geringerem Maße
2 | CC/C=C\C/C=C\C=C\[C@H](CCCCCCCC(=O)O)OO [9-HPOT, (9S, 10E, 12Z, 15Z)-9-Hydroperoxy-10,12,15-Octadecatriensäure] |  | wesentlich weniger stark umgesetzt
3 | CCCCC[C@@H](/C=C/C=C\CCCCCCCC(=O)O)OO [13-HPOD, (13S, 9Z, 11E)-13-Hydroperoxy-9,11-Octadecadiensäure] |  | bevorzugt
4 | CC/C=C\C[C@@H](/C=C/C=C\CCCCCCCC(=O)O)OO [13-HPOT, (9Z, 11E, 13S, 15Z)-13-Hydroperoxy-9,11,15-Octadecatriensäure] |  | wesentlich weniger stark umgesetzt
